Results on twelve molecules are retold here after PubChem BioAssay (NCI).

Structures are written as SMILES.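 All cell lines were grown in 96-well plates and treated with compound for 48 hours. TGI denotes the concentration required for complete inhibition of growth.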

Holding throughout (assay): NCI anticancer screen, dose series, 48 h
Test [1] has as its system IGROV1 ovarian.
The test system of test [2] is MDA-N.
Test [3] deals with SR leukemia.
Test [4] has as its system TK-10 renal.
Test [5] relates to SK-MEL-28 melanoma.
Test [6] concerns NCI-H460 lung.
Test [7] concerns MCF7 breast.
Test [8] relates to T-47D breast.
In test [9] the test system is SNB-75 CNS.
Test [10] has as its system HL-60(TB) leukemia.

With `COc1ccc(C2CC(c3cc4c(C)c(C(=O)c5ccccc5)oc4cc3O)=Nc3ccccc3S2)cc1OC` (stereo not drawn), the TGI in test [1] is above 100 µM; in [2], above 61.6 µM; in test [3] it was above 100 µM; in test [4], above 100 µM; in [5] it was above 100 µM; in test [6] it was above 100 µM. For the same molecule, the TGI in test [7] was above 100 µM; in [8], above 85.8 µM; in test [9], above 100 µM; in test [10] it was above 100 µM.

As for `COC(=O)C1Cc2c(C)cccc2C1=O` (stereo not drawn), the TGI in test [1], in [2], in test [3], in test [4], in test [5] and in [6] was above 100 µM throughout. Besides, the TGI was above 100 µM in [7], above 100 µM in test [8], above 100 µM in [9] and 77.8 µM in test [10].

`O=C(CCSC(CC(=O)c1ccc(Cl)cc1)c1ccc(Cl)cc1)Nc1ccc(Cl)cc1` (stereo not drawn): the TGI in [1] amounted to 29.6 µM; in test [2] it was 26 µM; in test [3] it was 9.57 µM; in [4], 29.9 µM; in test [5], 29.4 µM; in test [6] it was 28.6 µM. Further, the TGI turned out to be 15.3 µM in test [7], 22.2 µM in test [8], 36.4 µM in test [9] and 20.4 µM in [10].

Consider `O=C(Cc1ccc(Cl)c(Cl)c1)NCCCN1CCN(CCCN2CCCCC2)CC1`, for which the TGI in test [1] is 75 µM; in [2], 6.31 µM; in test [3], 29 µM; in [4] it was 32.3 µM; in test [5], 4.95 µM; in [6], 33.6 µM. The TGI in [7] came to 34.2 µM; in [8] it was 44.4 µM; in [9], 49.3 µM; in [10], 37.2 µM.

For the molecule `COC(=O)c1ccc(CN2CCc3c([nH]c4ccccc34)C2CO)o1` (stereo not drawn), the TGI in [1], in test [2], in test [3], in [4], in [5] and in [7] was above 10 µM each time. The TGI in test [8], in test [9] and in test [10] was above 10 µM throughout.

For the molecule `COc1c2cc(C(C)(C)C)cc1CSCc1cc(C(C)(C)C)cc(c1OC)CCCCC2`, the TGI in test [1], in [2], in test [3], in test [4], in test [5] and in [6] was above 50 µM throughout. The TGI in test [7], in test [8], in [9] and in test [10] was above 50 µM each time.

Consider `Nc1c(Br)cc(-c2cc(Br)c(N)c(Br)c2)cc1Br`, for which the TGI in [1], in [2], in [3], in [4], in test [5] and in [6] was above 100 µM each time. Also, the TGI in test [7], in test [8], in test [9] and in test [10] was above 100 µM each time.

For the molecule `COc1ccc(-n2c(CCCC(=O)O)nc3c2C(=O)c2ccccc2C3=O)cc1`, the TGI in test [1], in [2], in test [3], in test [4], in [5] and in [6] was above 100 µM in each case. In addition, the TGI in test [7], in test [8], in test [9] and in test [10] was above 100 µM in each case.

With `O=C1Nc2ccccc2C(=O)OC(Cc2ccccc2)=Nc2ccccc21`, the TGI in [1], in test [2], in [3], in test [4], in [5] and in test [6] was above 100 µM each time. The TGI in test [7], in [8], in [9] and in test [10] was above 100 µM each time.

Take `Cc1c(C)c(C)c(-n2c(=O)n(C)c(=O)n2C(C)(C)C)c(C)c1C`: the TGI in test [2], in test [3], in test [4], in [5], in test [6] and in [7] was above 100 µM each time. In addition, the TGI in test [8], in test [9] and in [10] was above 100 µM in each case.

Regarding `CCOC(=O)C1(Cc2ccc(C)cc2)Cc2ccc(C)cc2C1=O` (stereo not drawn), the TGI is above 100 µM in test [1]; 6.42 µM in test [2]; 68.8 µM in [3]; above 100 µM in test [4]; above 100 µM in [5]; 82.4 µM in [6]. In addition, the TGI in test [7] is 28.3 µM; in test [8], above 74.6 µM; in [9] it was above 100 µM; in [10] it was 23.6 µM.

Take `CN(NC(=O)c1ccco1)C1=NCCCCN1`: the TGI in test [1], in test [2], in [3], in test [4], in test [5] and in test [6] was above 100 µM each time. Further, the TGI in test [7], in test [8], in [9] and in test [10] was above 100 µM in each case.
